According to paper PMC7438494 (Communications Biology, 2020):
Several values for one entry are separate records, joined by “and”; a condition that tells them apart may be missing. Equal entries are not always repeated. Where two headings read alike, the source gives them in different places.

Molecular target: human ATP synthase (Homo sapiens, UniProt P00846+P05496)
Assay: biochemical
Type: biochemical
[1] = BDQ 0.65 uM, […], frozen human mito, BDQ in DMSO
[2] = BDQ 0.65 uM, cyanide sensitive, 60 min, frozen human mito, BDQ in DMSO
[3] = BDQ 1 uM, […], frozen human mito, BDQ in DMSO
[4] = BDQ 1 uM, cyanide sensitive, human
[5] = BDQ 2 uM, […], frozen human mito, BDQ in DMSO
[6] = BDQ 5 uM, […], frozen human mito, BDQ in DMSO
[7] = BDQ 5 uM, cyanide sensitive, human
[8] = BDQ 10 uM, […], frozen human mito, BDQ in DMSO
[9] = BDQ 10 uM, cyanide sensitive, human
[10] = Human Mito, 1st exp (12-14-18), Bedaquiline 0.05 μM, 60 min
[11] = Human Mito, 2nd exp (12-17-18), Bedaquiline 0.05 μM, 60 min

COc1nc2ccc(Br)cc2cc1[C@@H](c1ccccc1)[C@@](O)(CCN(C)C)c1cccc2ccccc12 [BDQ, Bedaquiline]
cyanide sensitive % inhibition (BDQ 0.5 uM, cyanide sensitive, human): 66.6% and 70.0% and 42.0% and 48.8% and 35.1%
% activity [1]: 30.2506%
% inhibition [1]: 69.7494%
ATP produced, nmol/min/mg [1]: 2.55 nmol/min/mg
ATP produced, pmol/min/mg [1]: 2547.17 pmol/min/mg
activity at 0.65 µM (BDQ 0.65 uM, […], frozen human mito, BDQ in DMSO, read-out: % activity): 30.3%
activity at 0.65 µM (BDQ 0.65 uM, […], frozen human mito, BDQ in DMSO, read-out: % activity, cyanide sensitive): 18.5%
inhibition at 0.65 µM (BDQ 0.65 uM, […], frozen human mito, BDQ in DMSO, read-out: % inhibition): 69.7%
inhibition at 0.65 µM (BDQ 0.65 uM, […], frozen human mito, BDQ in DMSO, read-out: % inhibition, cyanide sensitive): 81.5%
cyanide sensitive ATP produced, nmol/min/mg [2]: 1.33 nmol/min/mg
cyanide sensitive ATP produced, pmol/min/mg [2]: 1329.08 pmol/min/mg
cyanide sensitive % inhibition (BDQ 0.85 uM, cyanide sensitive, human): 67.5% and 100.0% and 66.9%
% activity [3]: 17.1322%
% activity, cyanide sensitive [3]: 3.117%
% inhibition [3]: 82.8678%
ATP produced, nmol/min/mg [3]: 1.44 nmol/min/mg
ATP produced, pmol/min/mg [3]: 1442.57 pmol/min/mg
activity at 1 µM (BDQ 1 uM, […], frozen human mito, BDQ in DMSO, read-out: % activity): 17.1%
inhibition at 1 µM (BDQ 1 uM, […], frozen human mito, BDQ in DMSO, read-out: % inhibition): 82.9%
inhibition at 1 µM (BDQ 1 uM, […], frozen human mito, BDQ in DMSO, read-out: % inhibition, cyanide sensitive): 96.9%
cyanide sensitive ATP produced, pmol/min/mg (BDQ 1 uM, cyanide sensitive, 60 min, frozen human mito, BDQ in DMSO): 224.48 pmol/min/mg
cyanide sensitive % activity [4]: -0.8% and 8.7% and -0.171%
cyanide sensitive % inhibition [4]: 91.3% and 100.2%
inhibition at 1 µM (BDQ 1 uM, cyanide sensitive, human, read-out: cyanide sensitive % inhibition): 101%
% activity [5]: 12.0221%
% inhibition [5]: 87.9779%
ATP produced, nmol/min/mg [5]: 1.01 nmol/min/mg
ATP produced, pmol/min/mg [5]: 1012.29 pmol/min/mg
activity at 2 µM (BDQ 2 uM, […], frozen human mito, BDQ in DMSO, read-out: % activity): 12%
activity at 2 µM (BDQ 2 uM, […], frozen human mito, BDQ in DMSO, read-out: % activity, cyanide sensitive): -2.86%
inhibition at 2 µM (BDQ 2 uM, […], frozen human mito, BDQ in DMSO, read-out: % inhibition): 88%
inhibition at 2 µM (BDQ 2 uM, […], frozen human mito, BDQ in DMSO, read-out: % inhibition, cyanide sensitive): 103%
cyanide sensitive ATP produced, pmol/min/mg (BDQ 2 uM, cyanide sensitive, 60 min, frozen human mito, BDQ in DMSO): -205.80 pmol/min/mg
cyanide sensitive % inhibition (BDQ 2 uM, cyanide sensitive, human): 98.3% and 117.8% and 98.9% and 97.2% and 102.7%
% activity [6]: 17.1136%
% activity, cyanide sensitive [6]: 3.095%
% inhibition [6]: 82.8864%
ATP produced, nmol/min/mg [6]: 1.44 nmol/min/mg
ATP produced, pmol/min/mg [6]: 1441.00 pmol/min/mg
activity at 5 µM (BDQ 5 uM, […], frozen human mito, BDQ in DMSO, read-out: % activity): 17.1%
inhibition at 5 µM (BDQ 5 uM, […], frozen human mito, BDQ in DMSO, read-out: % inhibition): 82.9%
inhibition at 5 µM (BDQ 5 uM, […], frozen human mito, BDQ in DMSO, read-out: % inhibition, cyanide sensitive): 96.9%
cyanide sensitive ATP produced, pmol/min/mg (BDQ 5 uM, cyanide sensitive, 60 min, frozen human mito, BDQ in DMSO): 222.91 pmol/min/mg
cyanide sensitive % activity [7]: -7.0% and -10.1% and -4.1% and -2.6% and -5.6%
cyanide sensitive % inhibition [7]: 107.0% and 110.1% and 102.6% and 105.6%
inhibition at 5 µM (BDQ 5 uM, cyanide sensitive, human, read-out: cyanide sensitive % inhibition): 104%
% activity [8]: 14.9815%
% activity, cyanide sensitive [8]: 0.6024%
% inhibition [8]: 85.0185%
ATP produced, nmol/min/mg [8]: 1.26 nmol/min/mg
ATP produced, pmol/min/mg [8]: 1261.47 pmol/min/mg
activity at 10 µM (BDQ 10 uM, […], frozen human mito, BDQ in DMSO, read-out: % activity): 15%
inhibition at 10 µM (BDQ 10 uM, […], frozen human mito, BDQ in DMSO, read-out: % inhibition): 85%
inhibition at 10 µM (BDQ 10 uM, […], frozen human mito, BDQ in DMSO, read-out: % inhibition, cyanide sensitive): 99.4%
cyanide sensitive ATP produced, pmol/min/mg (BDQ 10 uM, cyanide sensitive, 60 min, frozen human mito, BDQ in DMSO): 43.39 pmol/min/mg
cyanide sensitive % activity [9]: -1.4%
cyanide sensitive % inhibition [9]: 101.4%
inhibition at 10 µM (BDQ 10 uM, cyanide sensitive, human, read-out: cyanide sensitive % inhibition): 102%
Cyanide sensitive [10]: 4.658 nmol/min/mg
activity at 0.05 µM [10]: 64.1%
Cyanide sensitive (Human Mito, 1st exp (12-14-18), Bedaquiline 0.1 μM, 60 min): 6.127 nmol/min/mg
activity at 0.1 µM (Human Mito, 1st exp (12-14-18), Bedaquiline 0.1 μM, 60 min, read-out: % activity): 84.3%
Cyanide sensitive (Human Mito, 1st exp (12-14-18), Bedaquiline 0.2 μM, 60 min): 4.027 nmol/min/mg
activity at 0.2 µM (Human Mito, 1st exp (12-14-18), Bedaquiline 0.2 μM, 60 min, read-out: % activity): 55.4%
Cyanide sensitive (Human Mito, 1st exp (12-14-18), Bedaquiline 0.5 μM, 60 min): 2.18 nmol/min/mg
activity at 0.5 µM (Human Mito, 1st exp (12-14-18), Bedaquiline 0.5 μM, 60 min, read-out: % activity): 30%
Cyanide sensitive (Human Mito, 1st exp (12-14-18), Bedaquiline 0.65 μM, 60 min): -0.9359 nmol/min/mg
activity at 0.65 µM (Human Mito, 1st exp (12-14-18), Bedaquiline 0.65 μM, 60 min, read-out: % activity): -12.9%
Cyanide sensitive (Human Mito, 1st exp (12-14-18), Bedaquiline 0.85 μM, 60 min): -0.002656 nmol/min/mg
activity at 0.85 µM (Human Mito, 1st exp (12-14-18), Bedaquiline 0.85 μM, 60 min, read-out: % activity): -0.0365%
Cyanide sensitive (Human Mito, 1st exp (12-14-18), Bedaquiline 2 μM, 60 min): -1.2927 nmol/min/mg
activity at 2 µM (Human Mito, 1st exp (12-14-18), Bedaquiline 2 μM, 60 min, read-out: % activity): -17.8%
Cyanide sensitive (Human Mito, 1st exp (12-14-18), Bedaquiline 5 μM, 60 min): -0.5097 nmol/min/mg
activity at 5 µM (Human Mito, 1st exp (12-14-18), Bedaquiline 5 μM, 60 min, read-out: % activity): -7.01%
activity at 0.1 µM (Human Mito, 1st exp (18_12_14), BDQ 0.1 uM, read-out: Cyanide sensitive % activity): 73.2%
activity at 0.2 µM (Human Mito, 1st exp (18_12_14), BDQ 0.2 uM, read-out: Cyanide sensitive % activity): 57.7%
activity at 0.5 µM (Human Mito, 1st exp (18_12_14), BDQ 0.5 uM, read-out: Cyanide sensitive % activity): 44%
activity at 0.85 µM (Human Mito, 1st exp (18_12_14), BDQ 0.85 uM, read-out: Cyanide sensitive % activity): 16.6%
activity at 2 µM (Human Mito, 1st exp (18_12_14), BDQ 2 uM, read-out: Cyanide sensitive % activity): -8.33%
Cyanide sensitive [11]: 3.788 nmol/min/mg
activity at 0.05 µM [11]: 43.8%
Cyanide sensitive (Human Mito, 2nd exp (12-17-18), Bedaquiline 0.1 μM, 60 min): 5.369 nmol/min/mg
activity at 0.1 µM (Human Mito, 2nd exp (12-17-18), Bedaquiline 0.1 μM, 60 min, read-out: % activity): 62%
